Measured values: ChEMBL document CHEMBL1134111, “Nucleoside analogues as highly potent and selective inhibitors of herpes simplex virus thymidine kinase” (Bioorg Med Chem Lett, 2001)

Experiments:
Thymidine kinase [1] = molecular target: T1, Thymidine kinase (Human herpesvirus 2, UniProt Q6L709); assay: Inhibitory activity against HSV-2 Thymidine Kinase (HSV-2 TK)
T1 sequence (Q6L709 whole entry): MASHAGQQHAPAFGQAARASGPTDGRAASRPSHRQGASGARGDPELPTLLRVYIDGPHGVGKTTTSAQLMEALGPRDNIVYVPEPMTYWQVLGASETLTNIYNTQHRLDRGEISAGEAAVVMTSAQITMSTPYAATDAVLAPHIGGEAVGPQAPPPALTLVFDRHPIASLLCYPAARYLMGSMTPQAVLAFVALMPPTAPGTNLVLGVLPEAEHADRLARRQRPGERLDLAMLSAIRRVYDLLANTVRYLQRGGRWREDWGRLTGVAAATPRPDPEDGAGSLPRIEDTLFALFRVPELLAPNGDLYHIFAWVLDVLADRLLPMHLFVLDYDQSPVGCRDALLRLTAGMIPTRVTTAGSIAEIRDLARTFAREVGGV

Thymidine kinase [2] = molecular target: T2, Thymidine kinase (Human herpesvirus 1 (strain SC16) (HHV-1) (Human herpes simplex virus1), UniProt P06479); assay: Inhibitory activity against HSV-1 Thymidine Kinase (HSV-1 TK)
T2 sequence (P06479 whole entry): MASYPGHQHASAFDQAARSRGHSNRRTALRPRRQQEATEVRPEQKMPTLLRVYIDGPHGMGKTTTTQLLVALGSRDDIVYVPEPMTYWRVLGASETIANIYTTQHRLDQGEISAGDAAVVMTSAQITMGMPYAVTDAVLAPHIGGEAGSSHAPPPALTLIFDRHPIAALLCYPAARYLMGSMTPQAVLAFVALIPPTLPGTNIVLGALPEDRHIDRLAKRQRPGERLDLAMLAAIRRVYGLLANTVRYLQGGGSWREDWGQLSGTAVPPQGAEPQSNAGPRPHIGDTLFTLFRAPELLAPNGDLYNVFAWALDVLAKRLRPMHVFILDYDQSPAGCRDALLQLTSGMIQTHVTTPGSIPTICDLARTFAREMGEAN

SMILES | IC50 (Thymidine kinase [1]) [nM] | IC50 (Thymidine kinase [2]) [nM]
CCc1cn([C@H]2C[C@H](O)[C@@H](CNC(=O)C3c4ccccc4-c4ccccc43)O2)c(=O)[nH]c1=O | 5.2 | 28
CCc1cn([C@H]2C[C@H](O)[C@@H](CNC(=O)C3c4ccccc4Sc4ccccc43)O2)c(=O)[nH]c1=O | 1.4 | 11.5
CCc1cn([C@@H]2O[C@H](CNC(=O)C3c4ccccc4S(=O)(=O)c4c(Cl)cccc43)[C@@H](O)[C@@H]2F)c(=O)[nH]c1=O (some centres undefined) | 0.09 | 0.27
CCc1cn([C@@H]2O[C@H](CNC(=O)C3c4ccccc4Oc4c(C)cccc43)[C@@H](O)[C@@H]2F)c(=O)[nH]c1=O (some centres undefined) | 0.19 | 1.6
CCc1cn([C@@H]2O[C@H](CNC(=O)C3c4ccccc4S(=O)(=O)c4ccccc43)[C@@H](O)[C@@H]2F)c(=O)[nH]c1=O | 0.11 | 0.93
CCc1cn([C@H]2C[C@H](O)[C@@H](CNC(=O)Cc3ccccc3Cl)O2)c(=O)[nH]c1=O | 30 | 100
CCc1cn([C@@H]2O[C@H](CNC(=O)C3c4ccccc4Sc4c(Cl)cccc43)[C@@H](O)[C@@H]2F)c(=O)[nH]c1=O (some centres undefined) | 0.21 | 1.5
CCc1cn([C@H]2C[C@H](O)[C@@H](CNC(=O)C3c4ccccc4N(C)c4ccccc43)O2)c(=O)[nH]c1=O | 2.6 | 23
CCc1cn([C@H]2C[C@H](O)[C@@H](CNC(=O)Cc3ccccc3F)O2)c(=O)[nH]c1=O | 140 | 700
CCc1cn([C@@H]2O[C@H](CNC(=O)C3c4cccc(C)c4Oc4c(C)cccc43)[C@@H](O)[C@@H]2F)c(=O)[nH]c1=O | 0.43 | 2.2
CCc1cn([C@H]2C[C@H](O)[C@@H](CNC(=O)Cc3ccccc3C)O2)c(=O)[nH]c1=O | 60 | 200
CCc1cn([C@H]2C[C@H](O)[C@@H](CNC(=O)Cc3c(C)cccc3C)O2)c(=O)[nH]c1=O | 8.4 | 40
CCc1cn([C@H]2C[C@H](O)[C@@H](CNC(=O)c3c4ccccc4cc4ccccc34)O2)c(=O)[nH]c1=O | 420 | 1650
CCc1cn([C@@H]2O[C@H](CNC(=O)C3c4ccccc4Oc4ccccc43)[C@@H](O)[C@@H]2F)c(=O)[nH]c1=O | 0.11 | 2.1
CCc1cn([C@@H]2O[C@H](CNC(=O)C3c4ccccc4Oc4c(OC)cccc43)[C@@H](O)[C@@H]2F)c(=O)[nH]c1=O (some centres undefined) | 0.21 | 1.7
CCc1cn([C@H]2C[C@H](O)[C@@H](CNC(=O)C3c4ccccc4S(=O)(=O)c4ccccc43)O2)c(=O)[nH]c1=O | 0.13 | 0.95

SMILES | IC50 (Thymidine kinase [1]) [nM] | IC50 (Thymidine kinase [2]) [nM]
CCc1cn([C@@H]2O[C@H](CNC(=O)[C@H](C)Oc3cc(OC)c(Cl)cc3Cl)[C@@H](O)[C@@H]2F)c(=O)[nH]c1=O | 0.19 | 1.8
CCc1cn([C@@H]2O[C@H](CNC(=O)C3c4cccc(Cl)c4Oc4c(Cl)cccc43)[C@@H](O)[C@@H]2F)c(=O)[nH]c1=O | 0.1 | 0.3
CCc1cn([C@H]2C[C@H](O)[C@@H](CNC(=O)Cc3ccccc3)O2)c(=O)[nH]c1=O | 300 | 1000
CCc1cn([C@@H]2O[C@H](CNC(=O)C3c4ccccc4Oc4c(-c5ccccc5)cccc43)[C@@H](O)[C@@H]2F)c(=O)[nH]c1=O (some centres undefined) | 0.14 | 0.66
CCc1cn([C@H]2C[C@H](O)[C@@H](CNC(=O)Cc3ccccc3OC)O2)c(=O)[nH]c1=O | 70 | 300
CCc1cn([C@H]2C[C@H](O)[C@@H](CNC(=O)Cc3ccccc3C(F)(F)F)O2)c(=O)[nH]c1=O | 90 | 200
CCc1cn([C@@H]2O[C@H](CNC(=O)C3c4ccccc4C(C(F)(F)F)(C(F)(F)F)c4ccccc43)[C@@H](O)[C@@H]2F)c(=O)[nH]c1=O | 0.11 | 0.19
CCc1cn([C@@H]2O[C@H](CNC(=O)C3c4ccccc4Sc4ccccc43)[C@@H](O)[C@@H]2F)c(=O)[nH]c1=O | 0.7 | 8.5
CCc1cn([C@H]2C[C@H](O)[C@@H](CNC(=O)C3c4ccccc4CCc4ccccc43)O2)c(=O)[nH]c1=O | 44 | 260
CCc1cn([C@@H]2O[C@H](CNC(=O)C3c4ccccc4C(C)(C)c4ccccc43)[C@@H](O)[C@@H]2F)c(=O)[nH]c1=O | 0.28 | 1.5
CCc1cn([C@H]2C[C@H](O)[C@@H](CNC(=O)Cc3ccccc3-c3ccccc3)O2)c(=O)[nH]c1=O | 90 | 240
CCc1cn([C@@H]2O[C@H](CNC(=O)C3c4ccccc4Oc4c(Cl)cccc43)[C@@H](O)[C@@H]2F)c(=O)[nH]c1=O (some centres undefined) | 0.14 | 0.85
CCc1cn([C@@H]2O[C@H](CNC(=O)C3c4ccccc4Oc4c3cccc4C(F)(F)F)[C@@H](O)[C@@H]2F)c(=O)[nH]c1=O (some centres undefined) | 0.14 | 1
CCc1cn([C@H]2C[C@H](O)[C@@H](CNC(=O)C3c4ccccc4Cc4ccccc43)O2)c(=O)[nH]c1=O | 1.2 | 7
CCc1cn([C@H]2C[C@H](O)[C@@H](CNC(=O)C3c4ccccc4Oc4ccccc43)O2)c(=O)[nH]c1=O | 0.13 | 2.9
CCc1cn([C@H]2C[C@H](O)[C@@H](CNC(=O)Cc3c(Cl)cccc3Cl)O2)c(=O)[nH]c1=O | 3.3 | 1
